Test results taken from patent publication US7880007B2, “Bicyclic substituted phenyl piperidine modulators of muscarinic receptors” (Vertex Pharmaceuticals Incorporated, priority 2004, dated 2011).

Columns and labels:
Format in all cases: cell-based
M1 muscarinic receptor = target: T1, M1 muscarinic receptor (Homo sapiens, UniProt P11229); assay: Functional mobilization of intracellular calcium (FLIPR), M1-CHO cells; conditions: for M1 Activity: M1-CHO cells, calcium mobilization (FLIPR)
T1 construct: expressed in transfected cells; host or cells: CHO (M1-CHO)
T1 sequence (P11229 1-460): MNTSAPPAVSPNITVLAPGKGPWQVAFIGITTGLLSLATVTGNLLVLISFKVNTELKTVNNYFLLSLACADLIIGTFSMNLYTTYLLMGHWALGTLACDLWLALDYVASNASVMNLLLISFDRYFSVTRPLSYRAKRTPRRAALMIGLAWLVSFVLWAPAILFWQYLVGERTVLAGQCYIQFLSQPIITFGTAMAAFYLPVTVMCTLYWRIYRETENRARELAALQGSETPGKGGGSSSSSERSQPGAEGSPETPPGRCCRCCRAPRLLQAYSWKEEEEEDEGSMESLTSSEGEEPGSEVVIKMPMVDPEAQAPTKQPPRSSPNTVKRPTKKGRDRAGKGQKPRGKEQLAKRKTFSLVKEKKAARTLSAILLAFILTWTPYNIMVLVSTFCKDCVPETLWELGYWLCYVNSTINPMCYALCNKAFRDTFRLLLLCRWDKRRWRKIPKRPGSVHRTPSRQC
Method in brief: (§1)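 Calcium mobilisation read by FLIPR over 60 s (ex 488/em 540 nm) in recombinant muscarinic CHO lines loaded with calcium dye plus 1 mM probenecid. Compounds tested as agonists alone, or as inhibitors against EC80 carbachol after 15 min pre-incubation or co-addition; 0.5% DMSO; efficacy scaled to carbachol maximal response.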

M2 muscarinic receptor = target: T2, M2 muscarinic receptor (Homo sapiens, UniProt P08172); assay: Functional mobilization of intracellular calcium (FLIPR), M2-CHO cells; conditions: for M2 Activity: M2-CHO cells, calcium mobilization (FLIPR)
T2 construct: expressed in transfected cells; host or cells: CHO (M2-CHO)
T2 sequence (P08172 1-466): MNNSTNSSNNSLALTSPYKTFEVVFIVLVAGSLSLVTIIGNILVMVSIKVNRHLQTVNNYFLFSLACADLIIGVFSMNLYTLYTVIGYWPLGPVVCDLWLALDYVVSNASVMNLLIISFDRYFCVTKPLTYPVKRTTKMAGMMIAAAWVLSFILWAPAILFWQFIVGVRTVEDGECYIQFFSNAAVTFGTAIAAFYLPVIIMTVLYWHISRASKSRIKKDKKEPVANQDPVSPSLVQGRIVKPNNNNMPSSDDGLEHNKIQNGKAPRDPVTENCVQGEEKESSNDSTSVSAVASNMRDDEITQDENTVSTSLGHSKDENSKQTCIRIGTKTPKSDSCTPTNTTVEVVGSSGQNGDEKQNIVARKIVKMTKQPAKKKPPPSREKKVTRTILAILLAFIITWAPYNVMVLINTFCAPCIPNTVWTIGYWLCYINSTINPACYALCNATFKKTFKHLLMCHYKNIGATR
Method in brief: as §1

M4 muscarinic receptor = target: T3, M4 muscarinic receptor (Homo sapiens, UniProt P08173); assay: Functional mobilization of intracellular calcium (FLIPR), M4-CHO cells; conditions: for M4 Activity: M4-CHO cells, calcium mobilization (FLIPR)
T3 construct: expressed in transfected cells; host or cells: CHO (M4-CHO)
T3 sequence (P08173 1-479): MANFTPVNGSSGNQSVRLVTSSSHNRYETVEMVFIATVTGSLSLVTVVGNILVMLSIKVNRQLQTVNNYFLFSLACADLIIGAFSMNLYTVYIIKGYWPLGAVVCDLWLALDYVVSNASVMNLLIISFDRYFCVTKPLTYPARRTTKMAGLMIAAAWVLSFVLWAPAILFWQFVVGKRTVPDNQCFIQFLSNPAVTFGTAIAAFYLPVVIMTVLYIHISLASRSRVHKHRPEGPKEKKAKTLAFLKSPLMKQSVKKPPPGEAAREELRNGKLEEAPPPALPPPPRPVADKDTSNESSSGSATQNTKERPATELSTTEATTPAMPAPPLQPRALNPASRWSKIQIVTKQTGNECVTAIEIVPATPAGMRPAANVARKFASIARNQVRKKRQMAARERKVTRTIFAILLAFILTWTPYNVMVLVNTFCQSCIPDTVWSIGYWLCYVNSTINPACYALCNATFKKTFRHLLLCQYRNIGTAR
Method in brief: as §1

[1] = 100% efficacy = maximum response obtained with the Carbachol control
[2] = 100% efficacy is the maximum response obtained with the Carbachol control

Row | Compound | Emax (M1 muscarinic receptor; [1]) | M1 Activity (M1 muscarinic receptor) | Emax (M2 muscarinic receptor; [1]) | M2 Activity (M2 muscarinic receptor) | Emax (M4 muscarinic receptor; [1]) | M4 Activity (M4 muscarinic receptor) | Emax (M1 muscarinic receptor; [2]) | Emax (M2 muscarinic receptor; [2]) | Emax (M4 muscarinic receptor; [2])
1 | COc1ccc(Cl)cc1C1(O)CCN(C[C@@H]2C[C@H]3C=C[C@H]2C3)CC1 [Compound 319] | < 25% | + (activity was measured to be greater than 5.0 μM) | < 25% | + (activity was measured to be greater than 5.0 μM) | 25 to 100% | ++ (activity was measured to be from 1.0 μM to 5.0 μM) | – | – | –
2 | CCCC1CCC(N2CCC(C#N)(c3ccccc3OC)CC2)CC1 (stereo not drawn) [Compound 335] | 25 to 100% | ++ (activity was measured to be from 1.0 μM to 5.0 μM) | < 25% | + (activity was measured to be greater than 5.0 μM) | 25 to 100% | ++ (activity was measured to be from 1.0 μM to 5.0 μM) | – | – | –
3 | CCOC(=O)N1[C@@H]2CC[C@@H]1CC(N1CCC(c3cc(NC(C)=O)ccc3OC)CC1)C2 (stereo partly drawn) [Compound 338] | 25 to 100% | – | < 25% | – | 25 to 100% | – | – | – | –
4 | COc1ccc(OC)c(C2CCN(CC3C[C@H]4CC[C@H]3C4)CC2)c1 (stereo partly drawn) [Compound 344] | < 25% | + (activity was measured to be greater than 5.0 μM) | < 25% | + (activity was measured to be greater than 5.0 μM) | 25 to 100% | ++ (activity was measured to be from 1.0 μM to 5.0 μM) | – | – | –
5 | COc1ccccc1C1(C#N)CCN(C2CCCCC2)CC1 [Compound 348] | 25 to 100% | + (activity was measured to be greater than 5.0 μM) | < 25% | + (activity was measured to be greater than 5.0 μM) | 25 to 100% | ++ (activity was measured to be from 1.0 μM to 5.0 μM) | – | – | –
6 | COc1ccccc1C1(C#N)CCN(C[C@@H]2C[C@H]3C=C[C@H]2C3)CC1 [Compound 359] | 25 to 100% | ++ (activity was measured to be from 1.0 μM to 5.0 μM) | 25 to 100% | ++ (activity was measured to be from 1.0 μM to 5.0 μM) | 25 to 100% | +++ (activity was measured to be less than 1.0 μM) | – | – | –
7 | COc1ccccc1C1(C#N)CCN(C2CCOCC2)CC1 [Compound 379] | – | + (activity was measured to be greater than 5.0 μM) | – | + (activity was measured to be greater than 5.0 μM) | – | + (activity was measured to be greater than 5.0 μM) | < 25% | < 25% | < 25%
8 | COc1ccc(Cl)cc1C1(O)CCN(C2CCCCCC2)CC1 [Compound 380] | – | + (activity was measured to be greater than 5.0 μM) | – | + (activity was measured to be greater than 5.0 μM) | – | ++ (activity was measured to be from 1.0 μM to 5.0 μM) | < 25% | < 25% | 25 to 100%
9 | Cc1ccc(F)cc1C1CCN(C2C[C@H]3CC[C@H](C2)C3)CC1 (stereo partly drawn) [Compound 385] | – | ++ (activity was measured to be from 1.0 μM to 5.0 μM) | – | + (activity was measured to be greater than 5.0 μM) | – | +++ (activity was measured to be less than 1.0 μM) | 25 to 100% | < 25% | 25 to 100%
10 | COc1ccc(F)cc1C1CCN(C2CCC3CCC2C3)CC1 (stereo not drawn) [Compound 412] | – | +++ (activity was measured to be less than 1.0 μM) | – | ++ (activity was measured to be from 1.0 μM to 5.0 μM) | – | +++ (activity was measured to be less than 1.0 μM) | 25 to 100% | < 25% | 25 to 100%
11 | COc1ccccc1C1(C#N)CCN(C2CC3CCC(C3)C2)CC1 (stereo not drawn) [Compound 421] | – | ++ (activity was measured to be from 1.0 μM to 5.0 μM) | – | ++ (activity was measured to be from 1.0 μM to 5.0 μM) | – | +++ (activity was measured to be less than 1.0 μM) | 25 to 100% | < 25% | 25 to 100%
